# Reference: the METLIN SMRT retention time set (Domingo-Almenara et al. 2019)
# Assay: gradient 5% acetonitrile 3 min, to 50% in 2 min, to 85% in 15 min, held 3 min, 100 µL/min
# Details: column: Zorbax Extend-C18 2.1 x 50 mm; eluents: water / acetonitrile, 0.1% formic acid
# Outline: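 A Zorbax Extend-C18 column (2.1 × 50 mm, 1.8 μm) run at 100 μL/min with water and acetonitrile, both containing 0.1% formic acid, separated mixtures of ~100 pure standards. The HPLC was coupled to a quadrupole time-of-flight mass spectrometer operated in positive and negative ionization mode, with dead and dwell volumes of 40 μL and 900 μL. Each retention time was taken from a computationally picked adduct peak that was then manually inspected.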
row,Compound,RP-LC retention time
1,COc1ccc(S(=O)(=O)N2CC(F)(F)C[C@H]2c2nc(C)no2)cc1,851 s
2,CCn1c(C(=O)N2CCN(c3ncccn3)CC2)cc2cc(S(=O)(=O)N(C)C)ccc21,830 s
3,O=C(NCc1ccc(-c2nc(C3CC3)no2)s1)c1ccc(F)cc1F,956 s
4,CN(CCc1noc(COc2ccc(Cl)cc2)n1)C(=O)NCc1ccccc1,944 s
5,CCCn1cc(C(=O)NCCCN(C)C)c(S(=O)(=O)N2CCN(c3ccc(Cl)cc3)CC2)n1,757 s
6,O=C(Cc1nnc(-c2cccc(F)c2)o1)N1CCC2(CC1)OCCO2,698 s
7,CSc1ccc(-c2nc3cnccn3c2Nc2ccc(Cl)cc2)cc1,1010 s
8,CCOC(=O)CCCSc1nc2sc3c(c2c(=O)[nH]1)CCC3,870 s
9,CCOC(=O)C1=C(C)NC(C)=C(C(=O)OCC)C1c1c(F)c(F)c(F)c(F)c1F,1240 s
10,Cc1oc2ncnc(N3CCCC(C(=O)Nc4cccc(Cl)c4)C3)c2c1C (stereo not given),1050 s
11,O=C(c1ccsc1)N1CCCC(OCc2nc(C3CC3)no2)C1 (stereo not given),766 s
12,CCn1cnc2ccc(-c3noc(-c4cc(OC)cc(OC)c4)n3)cc21,797 s
13,CCc1ccc(-c2noc(Cn3c(=O)n(-c4ccc(C)cc4)c(=O)c4sccc43)n2)cc1,1160 s
14,CN(C)c1ccc(Nc2nc(-c3ccc(Br)cc3)cs2)cc1,787 s
15,CC(C)Cn1cc(CCNC(=O)Nc2ccc(F)cc2)c2cccnc21,812 s
16,O=C(Nc1ccc2c(c1)OCO2)C1CCN(c2cc(N3CCCC3)ncn2)CC1,642 s
17,CC1CN(C(=O)CCC(=O)NC2CCN(Cc3ccccc3)CC2)c2cc(Cl)ccc2O1 (stereo not given),694 s
18,CC(C)CN1C(=O)c2cccn2CC1CNC(=O)C1(c2ccccc2)CC1 (stereo not given),832 s
19,Cc1cc(NC(=O)c2cccn2-c2cccnc2)ccc1Br,881 s
20,Cc1ccc(N2CCN(C(=O)c3nnc(-c4ccc(S(=O)(=O)N5CCCC5)cc4)o3)CC2)c(C)c1,1190 s
21,Cc1ccsc1CN1CCCC(c2nc(-c3cccnc3)n[nH]2)C1 (stereo not given),561 s
22,CCSc1nnc(-c2nn(C)c3c2CN(C(=O)c2ccccc2F)CC3)n1C,732 s
23,Cc1cc(C(=O)Nc2ccc(Cl)cn2)c2ccccc2n1,694 s

row,Compound,RP-LC retention time
1,COC(=O)c1ccc(NC(=O)N2CC(C)Oc3ccccc32)cc1 (stereo not given),879 s
2,Cc1ccc(N2CN(CC(=O)Nc3ccccc3C)S(=O)(=O)c3cccnc32)cc1,813 s
3,O=C(c1cnn2cccnc12)N1CCCC1c1cccc(F)c1 (stereo not given),754 s
4,CCN1c2cc(F)ccc2C(=O)NC12CCN(C(=O)c1ccccc1C)CC2,835 s
5,COc1ccccc1NC(=O)N1CC(c2nc(C)no2)C2(CCOCC2)C1 (stereo not given),676 s
6,Cc1ccc(NC(=O)c2cnc3c(c2)c(=O)n(C)c(=O)n3-c2ccccc2)cc1,919 s
7,CCN(CC)c1ccc(Nc2nc(-c3ccc(OC)cc3)cs2)cc1,742 s
8,C=CCn1c(C)c(CC(=O)NC(C)C)c(=O)n2nc(-c3ccccc3)nc12,733 s
9,CCCNc1cc(N2CCC(CCC(=O)N3CCN(C(=O)OCC)CC3)CC2)ncn1,620 s
10,COc1ccccc1C1=NN(C(=O)c2ccccc2C)C(c2ccco2)C1 (stereo not given),976 s
11,Cc1cc(C)nc(SCCCNC(=O)Nc2cc(C)on2)n1,663 s
12,Cc1cc(C(=O)Nc2ccc(-c3nc4ccccc4o3)cc2)no1,857 s
13,Cc1cccc(NC(=O)Cn2c(N)nc(C)cc2=O)c1,601 s
14,Cc1ccc(=O)n(CC(=O)N2CCOCC2)n1,514 s
15,CC(C)Cc1ccc(S(=O)(=O)NC2CCCN(c3ccc(=O)n(CC4CC4)n3)C2)cc1 (stereo not given),1050 s
16,COC1CCC12CCN(C(=O)c1cnn(C)c1)CC2 (stereo not given),642 s
17,CCCNS(=O)(=O)c1ccc(Cl)c(-c2nnc(-c3ccc(OC)cc3)o2)c1,1010 s
18,O=C(O)c1nnn(-c2ccc(F)cc2)c1-c1ccncc1,612 s
19,CCC(C(=O)Nc1ccc2c(c1)OCCO2)n1cnc2nc3c(cc2c1=O)CCCC3 (stereo not given),763 s
20,COc1ccc(NS(=O)(=O)c2c(C)c(-c3nnc(C4CCC4)o3)n(C)c2C)c(C)c1,929 s
21,O=C(Nc1cnn(-c2ncc(N3CCCCC3)cn2)c1)c1ccccc1C(F)(F)F,865 s
22,CCn1nc(N2CCCC(NC(=O)Cn3c(=O)oc4ccccc43)C2)ccc1=O (stereo not given),707 s
